Source: article PMC11578372, “ProT‐Diff: A Modularized and Efficient Strategy for De Novo Generation of Antimicrobial Peptide Sequences by Integrating Protein Language and Diffusion Models” (Advanced Science, 2024)
Where two headings read alike, the source gives them in different places. Where no end group is shown, it is not given here.

Columns and labels:
[1] = tested on: E. coli; assay type: cell-based, Escherichia coli
Protocol: (§1) For the MIC determination of selected AMPs, 100 ul bacterial culture with an OD600 value of ≈0.1 was incubated with AMPs at concentrations ranging from 0 to 100 µM at 37 °C for 15–18 h. Herein, the MIC was determined as the minimum concentration of AMPs at which no detectable bacterial growth was observed.
(§2) All experiments were conducted with a minimum of four independent replicates. Student's t‐test was used to compare the means between the experimental and control groups (two‐sided).

[2] = tested on: all tested bacteria; assay type: cell-based
Source text: Gram‐negative bacteria include E. coli DH5α, E. coli O157: H7 CICC 21530, S. typhimurium CICC 21484, A. baumannii AB6, and P. aeruginosa ATCC 15442. Gram‐positive bacteria included S. aureus ATCC 33591, Methicillin‐resistant MRSA ATCC 43300, B. subtilis ATCC 9372. L. sphaericus CCM 2177. Two E. coli clinical isolates with mgrB mutations from Tongji Hospital (Wuhan, China) were used in this study, namely E. coli mgrB mutant 2^# and E. coli mgrB mutant 23^#.
as §1, §2

[3] = Cytotoxicity against mammalian cells (CCK-8); assay type: cell-based; details: human, 293T, CCK-8, n = 6, read-out: half maximal inhibitory concentration (IC50), cytotoxicity
Protocol: Cell Counting Kit 8 (CCK‐8) assay was used to assess the cytotoxicity of the AMPs against mammalian cells. Specifically, ≈4000 293T cells were seeded per well in a 96‐well cell culture plate (Corning, US), and were incubated at 37 °C with 5% CO2 for 24 h. Subsequently, the culture medium was replaced by different concentrations of AMPs solution diluted with the medium. The cells were co‐incubated with AMPs solution for an additional 24 h at 37 °C. And then, 10 µl of the CCK‐8 reagent (Beijing Lablead Biotech, China) was added to each well for 2 h of incubation at 37 °C. Finally, OD at 450 nm was measured using an imaging multimode microplate reader (Cytation 3, BioTek, US). Cell viability was defined as the percentage of each concentration relative to the control. Six replicates were used for the CCK‐8 assay.

[4] = tested on: E. coli DH5α; assay: TEM of cell membrane damage; assay type: cell-based, Escherichia coli; details: 1× MIC, 2–8 h, 37 °C
Protocol: Transmission Electron Microscopy (TEM) was employed to assess the cell membrane damage induced by AMPs. First, 50 µL of E. coli DH5α culture with an OD600 of ≈0.1 were mixed with 50 µL of AMPs solution (at 1× MIC) in a 96‐well plate. This mixture was incubated at 37 °C for 2, 4, 8, and 16 h. Following the incubation period, the bacteria were pelleted by centrifugation at 6,000 rpm for 5 min and fixed with 2.5% (vol/vol) glutaraldehyde in phosphate buffer (PB, 0.1 M, pH 7.4). Subsequently, the cells were postfixed with 1% (wt/vol) osmium tetraoxide in PB for 2 h at 4 °C, and were dehydrated through a graded ethanol series (30%, 50%, 70%, 80%, 90%, 100%, with each step lasting 7 min) before being put in pure acetone by two 10‐min steps. Following dehydration, the samples were subjected to infiltration using progressively mixed combinations of acetone and SPI‐PON812 resin (composed of 16.2 g SPI‐PON812, 10 g DDSA, and 8.9 g NMA) in ratios of 3:1, 1:1, and 1:3. The infiltration medium was then replaced with pure resin. Finally, the cells were embedded in pure resin containing 1.5% BDMA and polymerized for 12 h at 45 °C, followed by an additional 48 h polymerization at 60 °C. Ultrathin sections (70 nm thick) were obtained using a microtome (Leica EM UC6), double‐stained with uranyl acetate and lead citrate, and examined using a transmission electron microscope (FEI Tecnai Spirit 120 kV).

[5] = tested on: E. coli mgrB mutant 23#; assay: Lethal murine acute peritonitis model; assay type: in vivo, mouse (female BALB/c); details: for survival versus PBS treatment group (log-rank test): AMP_2 single IP dose, penicillin 50000 units per kg every 12 h for 3 d
Protocol: Female BALB/c mice weighing ≈18 g and aged 5–6 weeks were used to build a lethal murine acute peritonitis model according to previously established protocols.^[ [43], [44], [45] ^] The mice were subjected to intraperitoneal injections with E. colimgrB mutant 23^#suspension (0.2 mL per mouse) at concentration of 5×10^5 CFU mL^−1, 5×10^6 CFU mL^−1, 5×10^7 CFU mL^−1, respectively. […] Each group comprised of eight mice.
Subsequently, the mice were administered varying doses of AMP_2 (0.125, 0.25, 0.5, 1, 2, and 4 mg kg^−1) immediately after infection. As controls, the infected mice received intraperitoneal injections of sterile PBS or underwent penicillin treatment (0.2 mL per mouse). The single dose of penicillin administered was 50000 units per kg, and the mice received antibiotic treatment every 12 h for 3 d. The behavior and survival of the animals were monitored over a 7‐day period. Blood samples were collected from the mice before euthanasia for routine blood tests. The experiments were conducted in groups of eight mice.

[6] = 1 µg mL−1 (0.35 µM); cited from earlier work
Source text: (§3) In general, a higher antimicrobial potency in antimicrobial peptides often correlates with an elevated risk of heightened cytotoxicity and hemolytic activity. […] However, even at a ...

[7] = tested on: E. coli; details: cited from earlier work
Source text: as §3

[8] = tested on: human cell; details: 10 µg mL−1 (3.5 µM); cited from earlier work
Source text: as §3

| Substance | MIC [1] [µM] | MIC / spectrum against the tested bacteria [2] [µM] | IC50 at 24 h [3] [µM] | bacterial morphology by TEM [4] | body weight by the sixth day post-infection ([5]; 4 mg kg−1 IP, surviving infected mice) | survival versus PBS treatment group (log-rank test) ([5]; 8 mice per group) | routine blood components, treatment versus control group ([5]; blood collected before euthanasia, infected mice treated with AMP_2) | protection of infected mice (survival) ([5]; single IP dose 0.5 mg kg−1 immediately after infection, 5×10^5 CFU mL−1, 7-day observation, 8 mice per group) | hemolysis of cells [6] [%] | MIC [7] [µM] | human cell death [8] [%] |
| --- | --- | --- | --- | --- | --- | --- | --- | --- | --- | --- | --- |
| KWKFFKKIRKVGKKIRKVIKKIGKAVGAAAQAAGQAANA [AMP_2] | 2.5 | ≤ 20 | > 40 | serious leakage of cellular contents | slight decrease in body weight | significant differences in survival | not significantly different | complete protection |  |  |  |
| penicillin [reference compound] |  |  |  |  |  | no significant difference |  |  |  |  |  |
| melittin |  |  |  |  |  |  |  |  | 50 | 1 to 15 | > 50 |
